Measured values taken from patent US8987510B2, “Method for removal of the cyclic diester of a 2-hydroxy alkanoic acid from a vapor” (Purac Biochem BV, priority 2011, dated 2015).

How the values were obtained:
[1] = formation of lactide precipitates in circulating aqueous washing solution contacted with lactide-containing vapor
Text: In a first experiment according to the invention, a vapor which contains lactide (i.e. the dehydrated cyclic diester of lactic acid or 2-hydroxy propanoic acid) is guided via vapor inlet pipeline 1 into wet washing column 2 shown in FIG. 1. […] Column 2 comprises packed bed 3, which extends over the whole internal diameter of the column. The column is further equipped with a vapor outlet pipeline 4 and a liquid distributor 5. The vapor travels through packed bed 3 and exits the column via vapor outlet pipeline 4. […] Pump 6 further sucks the vapor containing the cyclic diester, such as lactide, from inlet pipeline 1, through column 2, packed bed 3 and outlet line 4 to an exhaust collection system (not shown).
Column 2 further comprises a liquid storage compartment 7, which contains an aqueous solution. Additional liquid can be introduced in compartment 7 via liquid inlet pipeline 8. […] This solution is circulated through a liquid circulation system comprising liquid circulation pipeline 9, which circulation is powered by liquid pump 10. In practice, the aqueous solution is pumped from the liquid storage compartment 7 via pipeline 9 and heat exchanger 11 to liquid distributor 5. In distributor 5, the alkaline solution is converted from a liquid stream into small droplets. These droplets fall onto and distribute over the upper surface 12 of packed bed 3. Due to gravity, the droplets of the aqueous solution travel through packed bed 3 and fall in the aqueous solution present in storage compartment 7. The size of compartment 7 depends on residence time required under the operation conditions used.
During the whole experiment, the pH of the solution was maintained above 10. This was achieved by the addition of a base. In the present experiment, sodium hydroxide was used as the base. It appeared to be advantageous to add the base continuously, preferably in liquid form. For this experiment, a commercially available stock solution of 50 w/w-% of NaOH in water (Brenntag, technical grade) was used. […]

[2] = solubility behavior of mandelide in neutral, acid and alkaline aqueous solution, visual inspection; format: physicochemical; conditions: 2% by weight mandelide, 20° C., stirred
Text: In additional experiments according to the present invention, the lactide was replaced by mandelide, the cyclic diester of 2-hydroxy-2-phenylacetic acid (also known as mandelic acid). The solubility behavior of mandelide in a neutral solution, an acid solution and an alkaline solution has been monitored and mutually compared. For this purpose, the acid aqueous solution was made by dissolving 10% by weight of mandelic acid in water. An alkaline aqueous solution was made by adding NaOH until a pH of 13 was reached. The neutral aqueous solution consisted of pure, non-buffered water. To these three aqueous solutions, an amount of 2% by weight of mandelide was added. All solutions were kept at 20° C. and stirred for several hours. In this period of time, the solubility behavior of the mandelide in the aqueous solutions was followed by visual inspection.

| Compound | lactide precipitates ([1]; alkaline aqueous solution, above pH 10, NaOH, around 15° C., approximately 15 mbar) | lactide precipitates ([1]; alkaline aqueous solution, pH between 7 and 10) | lactide precipitates ([1]; comparative: starting pH approximately 7, no base, pH drops below 4) | mandelide dissolved after 60 minutes ([2]; acid solution (10% by weight mandelic acid in water)) | added mandelide dissolved after 60 minutes ([2]; alkaline solution (NaOH, pH 13)) | mandelide dissolved after 60 minutes ([2]; neutral solution (pure, non-buffered water)) |
| --- | --- | --- | --- | --- | --- | --- |
| CC1OC(=O)C(C)OC1=O (stereo not drawn) [lactide] | no lactide precipitates have been observed | formation of small lactide precipitates can occur | part of the dissolved lactide precipitates | – | – | – |
| O=C1OC(c2ccccc2)C(=O)OC1c1ccccc1 (stereo not drawn) [mandelide] | – | – | – | almost all of the added mandelide was still not dissolved | approximately 50% | not been dissolved at all |
